Measurements: patent publication US20100204182A1, “ECTONUCLEOTIDASE INHIBITORS” (RHEINISCHE FRIEDRICH-WILHELMS-UNIVERSITAT BONN, priority 2006, published 2010)

How the values were obtained:
human NTPDase1 = molecular target: T1, human NTPDase1 (Homo sapiens, UniProt P49961); assay: NTPDase inhibition assay by capillary electrophoresis (CE), NTPDase1; assay type: biochemical; settings: CE method, ATP 320 μM, Km 17 μM, read-out: NTPDase1 Ki [μM] ± SEM
T1 sequence (P49961 1-510): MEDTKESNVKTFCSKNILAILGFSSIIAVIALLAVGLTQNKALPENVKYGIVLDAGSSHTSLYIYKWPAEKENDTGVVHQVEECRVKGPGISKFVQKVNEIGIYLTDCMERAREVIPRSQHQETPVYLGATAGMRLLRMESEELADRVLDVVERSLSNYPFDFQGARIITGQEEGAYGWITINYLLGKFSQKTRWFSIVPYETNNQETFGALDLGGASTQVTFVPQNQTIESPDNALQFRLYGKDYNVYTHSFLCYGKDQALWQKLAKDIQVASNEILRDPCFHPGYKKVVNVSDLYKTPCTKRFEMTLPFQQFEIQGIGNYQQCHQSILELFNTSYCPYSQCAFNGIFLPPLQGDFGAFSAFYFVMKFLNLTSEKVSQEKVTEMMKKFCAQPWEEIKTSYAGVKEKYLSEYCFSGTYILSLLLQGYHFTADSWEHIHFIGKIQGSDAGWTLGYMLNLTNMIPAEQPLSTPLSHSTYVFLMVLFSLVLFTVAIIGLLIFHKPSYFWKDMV
Method: The applied enzyme inhibition assay has been described (Iqbal J, Vollmayer P, Braun N, Zimmermann H, Müller C E. A capillary electrophoresis method for the characterization of ecto-nucleoside triphosphate diphosphohydrolases (NTPDases) and the analysis of inhibitors by in-capillary enzymatic microreaction. Purinergic Signalling 2005, 1, 349-358).
A. CE instrumentation: All experiments were carried out using a P/ACE MDQ capillary electrophoresis system (Beckman Instruments, Fullerton, Calif., USA) equipped with a UV detection system coupled with a diode-array detector (DAD). Data collection and peak area analysis were performed by the P/ACE MDQ software 32 KARAT obtained from Beckman Coulter. The capillary temperature was kept constant at 25° C. The temperature of the sample storing unit was also adjusted to 25° C. The electrophoretic separations were carried out using an eCAP polyacrylamide-coated fused-silica capillary [(30 cm (20 cm effective length)×50 μm internal diameter (I.D.)×360 μm outside diameter (O.D.), obtained from CS-Chromatographie (Langerwehe, Germany)]. The separation was performed using an applied current of −60 μA and a data acquisition rate of 8 Hz. Analytes were detected using direct UV absorbance at 210 nm. The capillary was conditioned by rinsing with water for 2 min and subsequently with buffer (phosphate 50 mM, pH 6.5) for 1 min. Sample injections were made at the cathodic side of the capillary.
B. NTPDase inhibition assay by capillary electrophoresis: Enzyme inhibition assays were carried out at 37° C. in a final volume of 100 μl. The reaction mixture contained 320 μM of ATP (substrate) in reaction buffer. The reaction buffer contained 140 mM NaCl, 5 mM KCl, 1 mM MgCl2, 2 mM CaCl2, and 10 mM Hepes, pH 7.4.
Different concentrations of inhibitors dissolved in DMSO or water (10 μl) were added and the reaction was initiated by the addition of 10 μl of the appropriately diluted recombinant or native human or rat NTPDase enzyme. […] The mixture (final volume 100 μl) was incubated for 15 min and terminated by heating at 99° C. for 4 min. Aliquots of the reaction mixture (50 μl) were then transferred to mini-CE vials and injected into the CE instrument under the conditions described above. 20 μM of UMP was used as internal standard. Inhibition of NTPDase was tested over a range of 6 to 8 concentrations of test compound spanning 3 orders of magnitude to determine K1 values. Each analysis was repeated two times (in triplicates) in two separate experiments. The Cheng-Prusoff equation was used to calculate the K1 values from the IC50 values, determined by the non-linear curve fitting program PRISM® 3.0 (GraphPad, San Diego, Calif., USA). In table 1K, values of selected compounds as inhibitors of human NTPDases are given.

human NTPDase2 = molecular target: T2, human NTPDase2 (Homo sapiens, UniProt Q9Y5L3); assay: NTPDase inhibition assay by capillary electrophoresis (CE), NTPDase2; assay type: biochemical
T2 sequence (Q9Y5L3 1-495): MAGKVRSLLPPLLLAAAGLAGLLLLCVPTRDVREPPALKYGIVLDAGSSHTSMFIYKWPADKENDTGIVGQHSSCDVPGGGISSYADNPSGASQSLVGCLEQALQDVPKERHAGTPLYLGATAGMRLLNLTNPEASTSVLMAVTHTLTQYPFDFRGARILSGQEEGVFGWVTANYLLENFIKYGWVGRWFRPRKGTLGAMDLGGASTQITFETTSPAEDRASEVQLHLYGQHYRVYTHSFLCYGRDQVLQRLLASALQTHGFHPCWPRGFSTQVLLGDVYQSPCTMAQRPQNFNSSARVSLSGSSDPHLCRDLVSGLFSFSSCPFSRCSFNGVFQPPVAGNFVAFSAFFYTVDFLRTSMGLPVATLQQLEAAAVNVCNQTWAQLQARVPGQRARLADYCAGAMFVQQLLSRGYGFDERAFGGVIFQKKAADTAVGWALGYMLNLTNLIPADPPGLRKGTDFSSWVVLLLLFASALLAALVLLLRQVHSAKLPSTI

hP2Y2 = hP2Y2 (Homo sapiens, UniProt P41231); assay: Inhibition of UTP binding at hP2Y2; settings: read-out: hP2Y2 % inhibition of UTP binding at 100 μM, n = 3, mean ± SEM
hP2Y2, sequence (P41231 whole entry): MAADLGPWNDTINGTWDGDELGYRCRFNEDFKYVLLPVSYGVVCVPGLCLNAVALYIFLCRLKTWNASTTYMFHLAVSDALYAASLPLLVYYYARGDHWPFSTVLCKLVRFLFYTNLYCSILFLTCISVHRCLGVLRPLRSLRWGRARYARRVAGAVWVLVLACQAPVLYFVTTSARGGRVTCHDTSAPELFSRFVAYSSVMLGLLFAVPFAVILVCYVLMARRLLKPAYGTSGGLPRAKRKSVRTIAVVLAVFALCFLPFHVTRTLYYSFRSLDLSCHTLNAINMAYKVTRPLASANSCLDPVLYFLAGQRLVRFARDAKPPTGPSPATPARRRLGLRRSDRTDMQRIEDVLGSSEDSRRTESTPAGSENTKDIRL
Method: (§1) In table 2 inhibition data of selected examples at human P2Y receptor subtypes were collected. It can be seen that no compound was identified that inhibited P2Y receptors at high concentrations of 100 μM and 10 μM, respectively.

rP2Y6 = rP2Y6 (Rattus norvegicus, UniProt Q63371); assay: Inhibition of UDP binding at rP2Y6; settings: read-out: rP2Y6 % inhibition of UDP binding at 100 μM, n = 3, mean ± SEM
rP2Y6, sequence (Q63371 whole entry): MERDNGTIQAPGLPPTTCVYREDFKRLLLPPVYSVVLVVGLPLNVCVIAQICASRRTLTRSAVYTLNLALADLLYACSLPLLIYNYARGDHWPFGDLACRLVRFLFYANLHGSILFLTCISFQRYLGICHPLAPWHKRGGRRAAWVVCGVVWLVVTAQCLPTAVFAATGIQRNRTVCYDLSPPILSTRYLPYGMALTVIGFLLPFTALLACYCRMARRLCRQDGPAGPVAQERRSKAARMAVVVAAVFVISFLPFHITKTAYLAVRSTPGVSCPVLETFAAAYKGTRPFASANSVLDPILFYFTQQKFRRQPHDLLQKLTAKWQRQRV

hP2Y12 = hP2Y12 (Homo sapiens, UniProt Q9H244); assay: Inhibition of [3H]PSB-0413 binding at hP2Y12; settings: mean ± SEM, read-out: hP2Y12 % Inhibition of [^3H]PSB-0413 Binding at 10 μM, n = 3
hP2Y12, sequence (Q9H244 whole entry): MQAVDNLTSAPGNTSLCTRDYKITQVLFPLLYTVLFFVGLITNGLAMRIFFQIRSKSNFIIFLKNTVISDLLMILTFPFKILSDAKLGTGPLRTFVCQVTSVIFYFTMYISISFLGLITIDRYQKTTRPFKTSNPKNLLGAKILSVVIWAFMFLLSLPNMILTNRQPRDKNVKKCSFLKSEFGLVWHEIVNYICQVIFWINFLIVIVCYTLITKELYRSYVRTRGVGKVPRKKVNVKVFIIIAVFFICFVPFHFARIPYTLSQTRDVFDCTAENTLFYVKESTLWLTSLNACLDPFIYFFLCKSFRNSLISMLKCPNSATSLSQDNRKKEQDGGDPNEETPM
Method: as §1

hP2Y4 = hP2Y4 (Homo sapiens, UniProt P51582); assay: Inhibition of UTP binding at hP2Y4; settings: read-out: hP2Y4 % inhibition of UTP binding at 100 μM, n = 3, mean ± SEM
hP2Y4, sequence (P51582 whole entry): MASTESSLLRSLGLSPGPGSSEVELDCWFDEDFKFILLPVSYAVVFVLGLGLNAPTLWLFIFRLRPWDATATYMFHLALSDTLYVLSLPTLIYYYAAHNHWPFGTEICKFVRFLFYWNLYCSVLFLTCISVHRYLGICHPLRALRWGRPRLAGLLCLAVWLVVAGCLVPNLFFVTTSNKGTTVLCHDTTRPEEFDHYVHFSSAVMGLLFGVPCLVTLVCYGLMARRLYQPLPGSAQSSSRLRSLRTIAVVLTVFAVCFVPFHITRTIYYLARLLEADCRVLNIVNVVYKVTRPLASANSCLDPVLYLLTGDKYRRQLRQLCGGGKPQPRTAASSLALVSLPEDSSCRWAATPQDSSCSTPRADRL
Method: as §1

rat ecto-5′-nucleotidase = molecular target: T3, rat ecto-5′-nucleotidase (Rattus norvegicus, UniProt P21588); assay: Ecto-5′-nucleotidase assay by capillary electrophoresis (CE); assay type: biochemical; settings: CE method, read-out: Rat Ecto-5′-NT Ki [μM] ± SEM
T3 construct: Catalytically active recombinant soluble glutathione-S-transferase/ecto-5′-nucleotidase fusion protein; GST (glutathione-S-transferase); made in house; host or cells: insect cells, baculovirus system
T3 sequence (P21588 29-551 limits assumed): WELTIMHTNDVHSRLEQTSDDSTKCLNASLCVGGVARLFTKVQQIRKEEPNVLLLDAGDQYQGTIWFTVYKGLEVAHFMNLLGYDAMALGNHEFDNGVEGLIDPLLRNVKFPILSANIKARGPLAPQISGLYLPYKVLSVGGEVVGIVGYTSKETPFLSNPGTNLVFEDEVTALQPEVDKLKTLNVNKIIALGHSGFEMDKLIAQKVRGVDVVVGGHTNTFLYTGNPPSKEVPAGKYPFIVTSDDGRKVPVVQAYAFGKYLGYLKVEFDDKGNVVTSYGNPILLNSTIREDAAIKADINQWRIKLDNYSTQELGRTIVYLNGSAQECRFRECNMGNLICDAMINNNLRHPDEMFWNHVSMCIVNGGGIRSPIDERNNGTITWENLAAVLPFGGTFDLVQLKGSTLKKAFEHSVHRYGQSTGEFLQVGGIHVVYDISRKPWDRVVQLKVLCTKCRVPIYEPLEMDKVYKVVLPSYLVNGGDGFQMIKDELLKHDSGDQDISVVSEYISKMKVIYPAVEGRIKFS
Method: Catalytically active recombinant soluble glutathione-S-transferase/ecto-5′-nucleotidase fusion protein was expressed in insect cells using the baculovirus system and purified by affinity chromatography using agarose-coupled GSH as previously described [Servos, J., Reilander, H., Zimmermann, H. Drug. Dev. Res. 1998, 45, 269-276]
Enzyme assays were carried out at 37° C. in a final volume of 100 μl. The reaction buffer consisted of 10 mM Hepes (2.38 g/L), 2 mM MgCl2 […], and 1 mM CaCl2 (0.11 g/L), brought to pH 7.4 by adding the appropriate amount of 1-N aqueous HCl solution. The reaction was initiated by the addition of 10 μl of the appropriately diluted enzyme (0.52 μg). The reaction mixture was incubated for 10 min and terminated by heating at 99° C. for 5 min. Nucleosides and nucleotides were stable under these conditions. Aliquots of the reaction mixture (50 μl) were then transferred to mini-CE vials containing 50 μl of the internal standard uridine (final concentration 20 μM). In the absence of an internal standard similar results were obtained. Each analysis was repeated twice (duplicates) in three separate experiments.
CE separations were carried out using a P/ACE MDQ system (Beckman Coulter Instruments, Fullerton, Calif., USA) equipped with a DAD detection system. The electrophoretic separations were carried out using an eCAP fused-silica capillary [30 cm (20 cm effective length)×75 μm internal diameter (I.D), ×375 μm outside diameter (O.D) obtained from Beckman Coulter]. The following conditions were applied: T=25° C., λmax=260 nm, voltage=15 kV, running buffer 40 mM sodium borate buffer, pH 9.1. The capillary was washed with 0.1 M NaOH for 2 min, deionized water for 1 min, and running buffer for 1 min before each injection. Injections were made by applying 0.1 psi of pressure to the sample solution for 30 s. The amount of adenosine formed was determined. The CE instrument was fully controlled through a personal computer, which operated with the analysis software 32 KARAT obtained from Beckman Coulter. Electropherograms were evaluated using the same software.

| Structure (SMILES) | Ki (human NTPDase1) | Ki (rat ecto-5′-nucleotidase) | further results |
| --- | --- | --- | --- |
| CCOP(=O)(OCC)C(NC(=O)CNC(=O)[C@H]1O[C@@H](n2ccc(=O)[nH]c2=O)C(O)C1O)P(=O)(OCC)OCC (stereo in doubt) [Compound 10, 2-[(2S,3R,4S,5R)-5-(2,4-Dioxo-3,4-dihydropyrimidin-1(2H)-yl)-3,4-dihydroxy-tetrahydrofurane-2-carboxamido]ethaneamidomethylenediphosphonic acid tetraethylester] | 93 ± 14 µM | – | Ki (human NTPDase2): ~165 µM; inhibition at 1000 µM (human NTPDase2; read-out: NTPDase2 inhibition (%) at 1 mM): 54%; inhibition at 100 µM (hP2Y2): -38 ± 11%; inhibition at 100 µM (rP2Y6): 8 ± 14%; inhibition at 10 µM (hP2Y12): 2 ± 5%; inhibition at 100 µM (hP2Y4): 34 ± 15% |
| O=C(CNC(=O)[C@H]1O[C@@H](n2ccc(=O)[nH]c2=O)C(O)C1O)Nc1ccc(CP(=O)(O)O)cc1 (stereo in doubt) [Compound 21, 4-[2-((2S,3R,4S,5R)-5-(2,4-Dioxo-3,4-dihydropyrimidine-1(2H)-yl)-3,4-dihydroxy-tetrahydrofurane-2-carboxamido)ethaneamido]benzylphosphonic acid] | – | 6.47 ± 1.31 µM | – |
| O=C(O)CCC(NC(=O)CCNC(=O)[C@H]1O[C@@H](N2CCC(=O)NC2=O)[C@H](O)[C@@H]1O)C(=O)O (stereo partly drawn) [Compound 14, 2-[3-((2S,3R,4S,5R)-5-(2,4-Dioxo-3,4,5,6-tetrahydropyrimidin-1(2H)-yl)-3,4-dihydroxy-tetrahydrofurane-2-carboxamido)propaneamido]-(S)-glutamic acid] | 10.8 ± 1 µM | 0.78 ± 0.18 µM | inhibition at 10 µM (hP2Y12): 6 ± 4% |
| CCOC(=O)C(CC(=O)O)NC(=O)CCCNC(=O)[C@H]1O[C@@H](n2ccc(=O)[nH]c2=O)[C@H](O)[C@@H]1O (stereo partly drawn) [Compound 15, 2-[4-((2S,3R,4S,5R)-5-(2,4-Dioxo-3,4-dihydropyrimidin-1(2H)-yl)-3,4-dihydroxy-tetrahydrofurane-2-carboxamido)butaneamido]-(S)-aspartic acid-1-ethylester] | 29 ± 4 µM | – | inhibition at 100 µM (hP2Y2): -28 ± 11% |
| O=C(O)C[C@H](NC(=O)CCCNC(=O)[C@H]1O[C@@H](N2CCC(=O)NC2=O)[C@H](O)[C@@H]1O)C(=O)O [Compound 23, 2-[4-((2S,3R,4S,5R)-5-(2,4-Dioxo-3,4,5,6-tetrahydropyrimidine-1(2H)-yl)-3,4-dihydroxy-tetrahydrofurane-2-carboxamido)butaneamido]-(S)-aspartic acid] | – | 0.18 ± 0.014 µM | – |
| O=C(O)CC[C@H](NC(=O)CNC(=O)[C@H]1O[C@@H](N2CCC(=O)NC2=O)[C@H](O)[C@@H]1O)C(=O)O [Compound 24, 2-[2-((2S,3R,4S,5R)-5-(2,4-Dioxo-3,4,5,6-dihydropyrimidine-1(2H)-yl)-3,4-dihydroxy-tetrahydrofurane-2-carboxamido)ethaneamido]-(S)-glutamic acid] | – | 34.3 ± 0.2 µM | – |
| Cc1cn([C@@H]2O[C@H](C(=O)NCCCC(=O)NC(CC(=O)O)C(=O)O)[C@@H](O)[C@H]2O)c(=O)[nH]c1=O (stereo partly drawn) [Compound 25, 2-[4-((2S,3R,4S,5R)-5-(2,4-Dioxo-5-methylpyrimidin-1(2H)-yl)-3,4-dihydroxy-tetrahydrofurane-2-carboxamido)butaneamido]-(S)-aspartic acid] | – | 1.61 ± 0.62 µM | – |
